# Source: patent US8691753B2 (priority 2009, dated 2014)
# Like-named read-outs stand apart in the source and are kept apart here.
# What was measured:
# Format in all cases: biochemical
# MMP-2h = MMP-2h (Homo sapiens (Human), UniProt P08253); assay: Inhibition constant (Ki) on MMP-2h; details: human MMP-2
# Excerpt: (§1) The inhibition constant Ki of these compounds has been determined according to the protocol described by Devel et al, 2006, J. Biol. Chem. (7).
# (§2) In this table I and also in table II below, “h” corresponds to human. All of the compounds have therefore been evaluated on human MMPs.
# MMP-3h = MMP-3h (Homo sapiens (Human), UniProt P08254); assay: Inhibition constant (Ki) on MMP-3h; details: human MMP-3
# Chain of MMP-3h (P08254 100-477): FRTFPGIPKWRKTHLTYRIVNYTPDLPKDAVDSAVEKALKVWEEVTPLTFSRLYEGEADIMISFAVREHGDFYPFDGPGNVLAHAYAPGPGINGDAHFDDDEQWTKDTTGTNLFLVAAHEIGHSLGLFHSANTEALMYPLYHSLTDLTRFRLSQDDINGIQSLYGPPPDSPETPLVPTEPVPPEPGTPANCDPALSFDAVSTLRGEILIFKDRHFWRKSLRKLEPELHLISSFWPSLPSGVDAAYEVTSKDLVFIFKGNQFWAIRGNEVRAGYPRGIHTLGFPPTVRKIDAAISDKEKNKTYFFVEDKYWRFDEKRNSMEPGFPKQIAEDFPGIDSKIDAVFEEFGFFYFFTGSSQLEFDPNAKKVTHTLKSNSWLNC
# Excerpt: as §1, §2
# MMP-8h = MMP-8h (Homo sapiens (Human), UniProt P22894); assay: Inhibition constant (Ki) on MMP-8h; details: human MMP-8
# Chain of MMP-8h (P22894 101-467): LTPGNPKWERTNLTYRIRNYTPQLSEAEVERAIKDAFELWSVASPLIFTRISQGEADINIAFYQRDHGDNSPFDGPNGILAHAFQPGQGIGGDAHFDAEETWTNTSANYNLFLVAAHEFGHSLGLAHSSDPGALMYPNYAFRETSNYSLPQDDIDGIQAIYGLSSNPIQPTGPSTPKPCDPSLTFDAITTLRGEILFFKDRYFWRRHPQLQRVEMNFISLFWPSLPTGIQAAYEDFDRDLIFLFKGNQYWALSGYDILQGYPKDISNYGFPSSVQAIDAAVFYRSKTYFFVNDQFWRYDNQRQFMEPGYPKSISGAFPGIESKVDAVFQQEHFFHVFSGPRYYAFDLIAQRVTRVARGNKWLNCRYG
# MMP-9h = MMP-9h (Homo sapiens (Human), UniProt P14780); assay: Inhibition constant (Ki) on MMP-9h; details: human MMP-9
# Chain of MMP-9h (P14780 94-707): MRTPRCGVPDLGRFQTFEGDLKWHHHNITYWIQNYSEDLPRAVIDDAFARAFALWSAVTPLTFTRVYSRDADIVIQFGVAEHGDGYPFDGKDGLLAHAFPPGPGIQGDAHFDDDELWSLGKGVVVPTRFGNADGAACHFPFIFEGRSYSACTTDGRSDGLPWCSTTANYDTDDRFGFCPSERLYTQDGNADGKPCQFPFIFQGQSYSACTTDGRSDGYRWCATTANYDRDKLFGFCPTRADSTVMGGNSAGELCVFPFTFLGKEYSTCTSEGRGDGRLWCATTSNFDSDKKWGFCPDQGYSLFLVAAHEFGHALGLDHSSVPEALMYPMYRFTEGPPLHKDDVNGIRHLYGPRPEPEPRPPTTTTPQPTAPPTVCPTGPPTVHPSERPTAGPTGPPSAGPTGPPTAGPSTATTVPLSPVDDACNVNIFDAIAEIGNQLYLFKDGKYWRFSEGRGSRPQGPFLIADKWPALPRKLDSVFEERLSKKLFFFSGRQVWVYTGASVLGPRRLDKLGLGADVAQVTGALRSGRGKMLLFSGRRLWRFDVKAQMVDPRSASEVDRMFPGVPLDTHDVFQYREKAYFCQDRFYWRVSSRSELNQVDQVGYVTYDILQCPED
# Excerpt: as §1, §2
# MMP-10h = MMP-10h (Homo sapiens (Human), UniProt P09238); assay: Inhibition constant (Ki) on MMP-10h; details: human MMP-10
# Chain of MMP-10h (P09238 99-476): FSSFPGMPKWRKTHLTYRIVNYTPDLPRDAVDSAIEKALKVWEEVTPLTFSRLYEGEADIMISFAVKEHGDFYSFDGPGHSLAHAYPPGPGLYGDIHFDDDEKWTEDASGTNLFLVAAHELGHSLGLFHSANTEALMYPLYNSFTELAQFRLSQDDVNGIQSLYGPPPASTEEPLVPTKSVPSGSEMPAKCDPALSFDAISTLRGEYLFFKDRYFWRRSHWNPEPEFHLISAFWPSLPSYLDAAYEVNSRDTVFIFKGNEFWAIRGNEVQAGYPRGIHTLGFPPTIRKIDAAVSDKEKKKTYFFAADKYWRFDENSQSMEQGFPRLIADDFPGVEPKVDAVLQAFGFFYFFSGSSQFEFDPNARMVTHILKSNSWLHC
# MMP-12h = MMP-12h (Homo sapiens (Human), UniProt P39900); assay: Inhibition constant (Ki) on MMP-12h; details: human MMP-12
# Chain of MMP-12h (P39900 106-470): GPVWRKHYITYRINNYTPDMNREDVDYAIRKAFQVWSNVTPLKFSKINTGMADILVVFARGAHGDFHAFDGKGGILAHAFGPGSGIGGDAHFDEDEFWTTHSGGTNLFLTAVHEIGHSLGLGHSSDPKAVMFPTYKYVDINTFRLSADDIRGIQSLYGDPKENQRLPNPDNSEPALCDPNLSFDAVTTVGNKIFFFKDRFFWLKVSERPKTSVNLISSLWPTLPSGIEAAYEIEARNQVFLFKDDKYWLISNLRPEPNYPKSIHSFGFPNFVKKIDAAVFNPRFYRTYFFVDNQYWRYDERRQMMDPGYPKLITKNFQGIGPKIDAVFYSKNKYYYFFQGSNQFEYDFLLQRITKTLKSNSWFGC
# MMP-13h = MMP-13h (Homo sapiens (Human), UniProt P45452); assay: Inhibition constant (Ki) on MMP-13h; details: human MMP-13
# Excerpt: as §1, §2
# MMP-14h = MMP-14h (Homo sapiens (Human), UniProt P50281); assay: Inhibition constant (Ki) on MMP-14h; details: human MMP-14
# Excerpt: as §1, §2
# Chain of MMP-2h (P08253 110-660): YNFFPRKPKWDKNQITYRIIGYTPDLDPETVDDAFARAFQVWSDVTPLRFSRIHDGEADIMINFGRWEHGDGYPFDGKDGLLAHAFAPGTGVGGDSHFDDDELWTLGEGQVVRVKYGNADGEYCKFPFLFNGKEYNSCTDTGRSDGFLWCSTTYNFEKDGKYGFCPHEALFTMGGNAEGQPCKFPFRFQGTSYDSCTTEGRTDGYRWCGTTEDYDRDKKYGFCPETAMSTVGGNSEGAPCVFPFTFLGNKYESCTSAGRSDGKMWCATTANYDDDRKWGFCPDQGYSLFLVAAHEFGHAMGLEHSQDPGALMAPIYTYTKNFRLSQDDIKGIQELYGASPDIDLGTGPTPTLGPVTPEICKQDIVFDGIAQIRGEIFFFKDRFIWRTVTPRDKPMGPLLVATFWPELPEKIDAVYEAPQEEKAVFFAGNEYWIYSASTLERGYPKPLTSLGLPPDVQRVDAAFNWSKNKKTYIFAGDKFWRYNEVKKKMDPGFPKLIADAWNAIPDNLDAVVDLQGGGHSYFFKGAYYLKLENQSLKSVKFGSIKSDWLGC
SMILES,Ki (MMP-2h; read-out: Ki MMP-2h) [µM],Ki (MMP-3h; read-out: Ki MMP-3h) [µM],Ki (MMP-8h; read-out: Ki MMP-8h) [µM],Ki (MMP-9h; read-out: Ki MMP-9h) [µM],Ki (MMP-10h; read-out: Ki MMP-10h) [µM],Ki (MMP-12h; read-out: Ki MMP-12h) [µM],Ki (MMP-13h; read-out: Ki MMP-13h) [µM],Ki (MMP-14h; read-out: Ki MMP-14h) [µM],Ki (MMP-2h) [µM],Ki (MMP-3h) [µM],Ki (MMP-8h) [µM],Ki (MMP-9h) [µM],Ki (MMP-10h) [µM],Ki (MMP-12h) [µM],Ki (MMP-13h) [µM],Ki (MMP-14h) [µM]
"NC(=O)[C@H](Cc1c[nH]cn1)NC(=O)[C@H](CCC(=O)O)NC(=O)CCc1ccc(-c2ccccc2)cc1 [Compound 48, (S)-5-((S)-1-amino-3-(1H-imidazol-4-yl)-1-oxopropan-2-ylamino)-4-(3-(biphenyl-4-yl)propanamido)-5-oxopentanoic acid]",0.847,> 10,0.339,> 5,> 1,0.075,> 1,> 10,–,–,–,–,–,–,–,–
"NC(=O)[C@H](CO)NC(=O)[C@H](CCC(=O)O)NC(=O)CCc1ccc(-c2ccccc2)cc1 [Compound 49, (S)-5-((S)-1-amino-3-hydroxy-1-oxopropan-2-ylamino)-4-(3-(biphenyl-4-yl)propanamido)-5-oxopentanoic acid]",0.79,> 5,0.204,> 1,> 1,0.041,> 1,> 1,–,–,–,–,–,–,–,–
"CC(C)C[C@H](NC(=O)[C@H](CCC(=O)O)NC(=O)CCc1ccc(-c2ccccc2)cc1)C(N)=O [Compound 50, (S)-5-((S)-1-amino-4-methyl-1-oxopentan-2-ylamino)-4-(3-(biphenyl-4-yl)propanamido)-5-oxopentanoic acid]",> 1,> 50,0.364,> 5,> 5,0.076,> 1,> 5,–,–,–,–,–,–,–,–
"O=C(O)CC[C@H](NC(=O)CCc1ccc(-c2ccccc2)cc1)C(=O)N1CCC[C@@H](CC(=O)O)C1 [Compound 51, (S)-4-(3-(biphenyl-4-yl)propanamido)-5-((S)-3-(carboxymethyl)piperidin-1-yl)-5-oxopentanoic acid]",> 1,> 10,0.929,> 1,> 10,0.259,> 1,> 5,–,–,–,–,–,–,–,–
"O=C(O)CC[C@H](NC(=O)CCc1ccc(-c2ccccc2)cc1)C(=O)Nc1cccc(CC(=O)O)c1 [Compound 52, (S)-4-(3-(biphenyl-4-yl)propanamido)-5-(3-(carboxymethyl)phenylamino)-5-oxopentanoic acid]",0.546,> 5,0.063,> 1,0.433,0.0127,> 1,> 1,–,–,–,–,–,–,–,–
"NC(=O)[C@H](CCC(=O)O)NC(=O)[C@H](CCC(=O)O)NC(=O)CCc1ccc(-c2cccc(N)c2)cc1 [Compound 53, (S)-5-amino-4-((S)-2-(3-(3′-aminobiphenyl-4-yl)propanamido)-4-carboxybutanamido)-5-oxopentanoic acid]",> 1,> 1,> 1,> 1,> 1,0.19,> 1,> 1,–,–,–,–,–,–,–,–
"NC(=O)[C@H](CCC(=O)O)NC(=O)[C@H](CCC(=O)O)NC(=O)CCc1ccc(-c2cccc(O)c2)cc1 [Compound 54, (S)-5-amino-4-((S)-4-carboxy-2-(3-(3′-hydroxybiphenyl-4-yl)propanamido)butanamido)-5-oxopentanoic acid]",> 10,> 10,> 1,> 1,> 1,0.176,> 10,> 10,–,–,–,–,–,–,–,–
"NC(=O)[C@H](CCC(=O)O)NC(=O)[C@H](CCC(=O)O)NC(=O)CCc1ccc(-c2cccc([N+](=O)[O-])c2)cc1 [Compound 55, (S)-5-amino-4-((S)-4-carboxy-2-(3-(3′-nitrobiphenyl-4-yl)propanamido)butanamido)-5-oxopentanoic acid]",–,–,–,–,–,–,–,–,> 1,0.878,> 1,0.685,> 1,0.073,0.436,> 5
"NC(=O)[C@H](CCC(=O)O)NC(=O)[C@H](CCC(=O)O)NC(=O)CCc1ccc(-c2cccc(C(=O)O)c2)cc1 [Compound 56, 4′-(3-((S)-1-((S)-1-amino-4-carboxy-1-oxobutan-2-ylamino)-4-carboxy-1-oxobutan-2-ylamino)-3-oxopropyl)biphenyl-3-carboxylic acid]",> 5,> 10,> 1,> 1,> 10,0.091,> 5,> 10,–,–,–,–,–,–,–,–
"NC(=O)[C@H](CCC(=O)O)NC(=O)[C@H](CCC(=O)O)NC(=O)CCc1ccc(-c2cccc(Cl)c2)cc1 [Compound 57, (S)-5-amino-4-((S)-4-carboxy-2-(3-(3′-chlorobiphenyl-4-yl)propanamido)butanamido)-5-oxopentanoic acid]",> 1,> 10,> 1,> 1,> 5,0.057,> 5,> 10,–,–,–,–,–,–,–,–
"NC(=O)[C@H](CCC(=O)O)NC(=O)[C@H](CCC(=O)O)NC(=O)CCc1ccc(-c2cc(Cl)cc(Cl)c2)cc1 [Compound 58, (S)-5-amino-4-((S)-4-carboxy-2-(3-(3′,5′-dichlorobiphenyl-4-yl)propanamido)butanamido)-5-oxopentanoic acid]",> 1,> 1,> 5,0.391,> 1,0.056,> 1,> 1,–,–,–,–,–,–,–,–
"COc1cccc(-c2ccc(CCC(=O)N[C@@H](CCC(=O)O)C(=O)N[C@@H](CCC(=O)O)C(N)=O)cc2)c1 [Compound 59, (S)-5-amino-4-((S)-4-carboxy-2-(3-(3′-methoxybiphenyl-4-yl)propanamido)butanamido)-5-oxopentanoic acid]",> 5,> 10,> 1,> 5,> 1,0.035,> 5,> 10,–,–,–,–,–,–,–,–
"NC(=O)[C@H](CCC(=O)O)NC(=O)[C@H](CCC(=O)O)NC(=O)CCc1ccc(-c2cccc(CO)c2)cc1 [Compound 60, (S)-5-amino-4-((S)-4-carboxy-2-(3-(3′-(hydroxymethyl)biphenyl-4-yl)propanamido)butanamido)-5-oxopentanoic acid]",> 5,> 10,0.809,> 5,> 5,0.052,> 5,> 10,–,–,–,–,–,–,–,–
"NC(=O)CC[C@H](NC(=O)[C@H](CCC(=O)O)NC(=O)CCc1ccc(-c2ccc(-c3ccccc3)cc2)cc1)C(N)=O [Compound 62, (S)-5-((S)-1,5-diamino-1,5-dioxopentan-2-ylamino)-4-(3-(4′-phenylbiphenyl-4-yl)propanamido)-5-oxopentanoic acid]",0.045,0.244,0.452,> 1,0.102,0.0052,0.02,> 1,–,–,–,–,–,–,–,–
"NCCCC[C@H](NC(=O)[C@H](CCC(=O)O)NC(=O)CCc1ccc(-c2ccc(-c3ccccc3)cc2)cc1)C(N)=O [Compound 63, (S)-5-((S)-1,6-diamino-1-oxohexan-2-ylamino)-4-(3-(4′-phenylbiphenyl-4-yl)propanamido)-5-oxopentanoic acid]",0.11,> 1,0.621,> 1,0.447,0.0143,0.055,> 1,–,–,–,–,–,–,–,–
"NC(=O)[C@H](CC(=O)O)NC(=O)[C@H](CCC(=O)O)NC(=O)CCc1ccc(-c2ccc(-c3ccccc3)cc2)cc1 [Compound 64, (S)-5-((S)-1-amino-3-carboxy-1-oxopropan-2-ylamino)-4-(3-(4′-phenylbiphenyl-4-yl)propanamido)-5-oxopentanoic acid]",0.055,0.168,0.287,> 1,0.035,0.0033,0.023,> 5,–,–,–,–,–,–,–,–
"NC(=O)[C@H](Cc1ccc(O)cc1)NC(=O)[C@H](CCC(=O)O)NC(=O)CCc1ccc(-c2ccc(-c3ccccc3)cc2)cc1 [Compound 65, (S)-5-((S)-1-amino-3-(4-hydroxyphenyl)-1-oxopropan-2-ylamino)-4-(3-(4′-phenylbiphenyl-4-yl)propanamido)-5-oxopentanoic acid]",0.073,0.62,0.793,> 1,0.119,0.0066,0.033,> 1,–,–,–,–,–,–,–,–
"C[C@H](NC(=O)[C@H](CCC(=O)O)NC(=O)CCc1ccc(-c2ccc(-c3ccccc3)cc2)cc1)C(N)=O [Compound 66, (S)-5-((S)-1-amino-1-oxopropan-2-ylamino)-4-(3-(4′-phenylbiphenyl-4-yl)propanamido)-5-oxopentanoic acid]",0.049,0.238,0.532,> 10,0.13,0.0022,0.0164,> 10,–,–,–,–,–,–,–,–
